Some test systems named below: NCI-H23; UACC-257; SN12C; OVCAR-5; SK-MEL-28; COLO 205; OVCAR-8; SK-MEL-5; DU-145; MOLT-4; SW-620; SK-MEL-2; MDA-MB-435; SNB-19; SK-OV-3; HCC 2998; A498; CCRF-CEM; RPMI-8226; OVCAR-3.
What all share (test): DTP human tumour cell line panel, 48 h

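Five concentrations, 48 hours, 96-well plates. At the GI50, growth is halved.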 Activity calls are given as the source filed them. Cut-off read from the data, not from the text of the source: active = GI50 up to about 1.1 µM and inactive = higher. Some results are limits rather than exact numbers.

The term GI50 denotes the concentration that inhibits growth by half. Take `CCCCC(CCCC)=NNC(=S)SC`: the GI50 in the test on NCI-H23 was 33.7 µM (inactive); in the test on UACC-257 it was 24.9 µM (inactive); with SN12C, 34.2 µM (inactive); in the test on OVCAR-5, 38.2 µM (inactive); in the test on SK-MEL-28 it was 37.2 µM (inactive); in the test with COLO 205 it was 36.4 µM (inactive). In addition, the GI50 in the test on OVCAR-8 was 19.2 µM (inactive); with SK-MEL-5, 16.1 µM (inactive); in the test with DU-145 it was 30.3 µM (inactive); in the test on MOLT-4, 18 µM (inactive); in the test on SW-620, 38.9 µM (inactive); in the test on SK-MEL-2, 36.4 µM (inactive). The GI50 is 17.9 µM (inactive) with MDA-MB-435; 24.3 µM (inactive) in the test on SNB-19; > 100 µM (inactive) in the test on SK-OV-3; 15.4 µM (inactive) in the test on HCC 2998; 39.4 µM (inactive) in the test on A498.
On to `CCn1c(-c2ccc(OC)cc2)nc2c1C(=O)c1ccccc1C2=O`, for which the GI50 in the test with NCI-H23, in the test on UACC-257, in the test on SN12C, in the test with CCRF-CEM, with OVCAR-5 and in the test on SK-MEL-28 was > 100 µM (inactive) each time. In addition, the GI50 with COLO 205, with OVCAR-8, in the test with SK-MEL-5, in the test on DU-145, with MOLT-4 and in the test with SW-620 was > 100 µM (inactive) throughout. The GI50 in the test on RPMI-8226, in the test on MDA-MB-435, in the test on SNB-19, with SK-OV-3, with OVCAR-3 and in the test on HCC 2998 was > 100 µM (inactive) throughout.
Regarding `CC1(C)CC2C=C(C=O)C3(C=O)CC3(C)C2C1` (stereo unspecified), the GI50 in the test on NCI-H23 is 1.83 µM (inactive); in the test on UACC-257, 2.38 µM (inactive); in the test on SN12C, 2.54 µM (inactive); with CCRF-CEM, 0.0468 µM (active); in the test on OVCAR-5, 1.79 µM (inactive); in the test on SK-MEL-28 it was 2.06 µM (inactive). Besides, the GI50 was 1.89 µM (inactive) in the test with COLO 205; 1.95 µM (inactive) in the test on OVCAR-8; 1.64 µM (inactive) in the test on SK-MEL-5; 5.45 µM (inactive) in the test on DU-145; 0.191 µM (active) in the test with MOLT-4; 0.582 µM (active) in the test on SW-620. The GI50 is 2.07 µM (inactive) in the test on SK-MEL-2; 0.378 µM (active) in the test with RPMI-8226; 1.75 µM (inactive) in the test with MDA-MB-435; 11.8 µM (inactive) in the test on SNB-19; 3.43 µM (inactive) with SK-OV-3; 0.944 µM (active) in the test with OVCAR-3. The GI50 in the test with HCC 2998 is 5.5 µM (inactive).
For `CC(C)=C=CC(C)(C)NS(=O)(=O)NC(C)(C)C=C=C(C)C`, the GI50 in the test on NCI-H23, in the test on UACC-257, in the test with SN12C, in the test on OVCAR-5, with SK-MEL-28 and in the test with COLO 205 was > 100 µM (inactive) in each case. The GI50 in the test with OVCAR-8, in the test with SK-MEL-5, with DU-145, in the test on SW-620, in the test on SK-MEL-2 and in the test on MDA-MB-435 was > 100 µM (inactive) in each case. Besides, the GI50 was > 100 µM (inactive) with SNB-19; > 100 µM (inactive) with SK-OV-3; 71.3 µM (inactive) in the test with OVCAR-3; 25.5 µM (inactive) in the test with HCC 2998; > 100 µM (inactive) in the test on A498.
Regarding `CSc1nc(C#N)c(/N=C\N(C)C)n1C`, the GI50 in the test with NCI-H23, in the test with UACC-257, in the test with SN12C, with CCRF-CEM, in the test with OVCAR-5 and in the test on SK-MEL-28 was > 100 µM (inactive) in each case. Moreover, the GI50 in the test with COLO 205, in the test with OVCAR-8, in the test on SK-MEL-5, in the test with DU-145, in the test with MOLT-4 and with SW-620 was > 100 µM (inactive) each time. In addition, the GI50 with SK-MEL-2, in the test on RPMI-8226, in the test with MDA-MB-435, in the test with SNB-19, with SK-OV-3 and with OVCAR-3 was > 100 µM (inactive) in each case. Also, the GI50 in the test with A498 was > 100 µM (inactive).
Regarding `c1ccc2c(c1)nc1n2sc2nc3ccccc3n21`, the GI50 in the test with NCI-H23, with UACC-257, in the test on SN12C, in the test on CCRF-CEM, with OVCAR-5 and in the test with SK-MEL-28 was > 100 µM (inactive) in each case. Besides, the GI50 in the test on COLO 205, in the test with OVCAR-8, in the test on SK-MEL-5, in the test with DU-145, in the test on MOLT-4 and in the test on SW-620 was > 100 µM (inactive) in each case. In addition, the GI50 with SK-MEL-2, in the test on RPMI-8226, in the test on MDA-MB-435, in the test on SK-OV-3, in the test on OVCAR-3 and with HCC 2998 was > 100 µM (inactive) each time.
On to `S=C(c1c[nH]c2ccccc12)N1CCN(c2ccccc2)CC1`, for which the GI50 with NCI-H23 is > 100 µM (inactive); in the test with UACC-257, > 100 µM (inactive); in the test with SN12C, 21.8 µM (inactive); with CCRF-CEM it was > 100 µM (inactive); in the test with OVCAR-5, > 100 µM (inactive); with SK-MEL-28, 86.9 µM (inactive). Moreover, the GI50 in the test on COLO 205 is > 100 µM (inactive); with OVCAR-8 it was 37.8 µM (inactive); with SK-MEL-5, 80 µM (inactive); with DU-145, > 100 µM (inactive); in the test on MOLT-4, > 100 µM (inactive); with SW-620, > 100 µM (inactive). The GI50 with SK-MEL-2, with RPMI-8226, in the test with MDA-MB-435, in the test on SNB-19, in the test on SK-OV-3 and with OVCAR-3 was > 100 µM (inactive) in each case. Also, in the test with A498, the GI50 was > 100 µM (inactive).
Take `CCOC(=O)c1sc(N/N=C2\NC(=O)/C(=C/c3ccc([N+](=O)[O-])cc3)S2)nc1C`: the GI50 in the test on NCI-H23 was 24.4 µM (inactive); with UACC-257, 15.6 µM (inactive); in the test on SN12C, 30.4 µM (inactive); with CCRF-CEM, 15.1 µM (inactive); with OVCAR-5, 22.6 µM (inactive); in the test with SK-MEL-28, 32.1 µM (inactive). Further, the GI50 was 25.1 µM (inactive) in the test on COLO 205; 22.4 µM (inactive) in the test with OVCAR-8; 16.8 µM (inactive) with SK-MEL-5; 16.8 µM (inactive) in the test on DU-145; 10.3 µM (inactive) in the test with MOLT-4; 31.8 µM (inactive) in the test with SW-620. In addition, the GI50 is 24.8 µM (inactive) with SK-MEL-2; 23.8 µM (inactive) with MDA-MB-435; 32.6 µM (inactive) in the test on SNB-19; 31.4 µM (inactive) in the test with SK-OV-3; 14.5 µM (inactive) in the test with OVCAR-3; 27.4 µM (inactive) in the test on HCC 2998. The GI50 with A498 is 26.1 µM (inactive).
For the compound `COc1ccc2[nH]c3c(C)c4ncccc4c(C)c3c2c1`, the GI50 with NCI-H23 was > 10 µM (inactive); in the test with UACC-257, > 10 µM (inactive); in the test with SN12C, 4.78 µM (inactive); in the test on CCRF-CEM, 3.85 µM (inactive); with OVCAR-5, 5.61 µM (inactive); in the test on SK-MEL-28, 1.99 µM (inactive). Moreover, the GI50 in the test with COLO 205 was 6.95 µM (inactive); in the test with OVCAR-8, 3.73 µM (inactive); in the test on SK-MEL-5, > 10 µM (inactive); with DU-145 it was 7.55 µM (inactive); with MOLT-4, 4.04 µM (inactive); with SW-620, 1.98 µM (inactive). Also, the GI50 in the test with SK-MEL-2 was > 10 µM (inactive); in the test with RPMI-8226 it was 3.44 µM (inactive); in the test on MDA-MB-435, 1.82 µM (inactive); with SNB-19, > 10 µM (inactive); in the test on SK-OV-3, > 10 µM (inactive); in the test with OVCAR-3, 2.71 µM (inactive). In addition, the GI50 with HCC 2998 was 8.97 µM (inactive).
Turning to `C=C1C(=O)O[C@H]2C1C[C@@H](O)[C@@]1(C)OC1CC[C@@]1(C)O[C@H]21` (stereo partly specified), the GI50 in the test on NCI-H23 was 17 µM (inactive); in the test on UACC-257, 19.5 µM (inactive); in the test with SN12C, 20.1 µM (inactive); in the test on CCRF-CEM it was 5.15 µM (inactive); in the test on OVCAR-5, 28.7 µM (inactive); in the test with SK-MEL-28, 21.1 µM (inactive). For the same compound, the GI50 with COLO 205 was 11.6 µM (inactive); in the test on OVCAR-8 it was 34.7 µM (inactive); in the test on SK-MEL-5, 16.1 µM (inactive); in the test with DU-145, 36.6 µM (inactive); in the test with MOLT-4 it was 5.94 µM (inactive); in the test on SW-620, 13.3 µM (inactive). In addition, the GI50 with SK-MEL-2 is 17.6 µM (inactive); in the test with RPMI-8226, 8.95 µM (inactive); in the test with MDA-MB-435, 21 µM (inactive); in the test on SNB-19 it was > 100 µM (inactive); in the test with SK-OV-3, > 100 µM (inactive); in the test on HCC 2998 it was 15.2 µM (inactive).
As for `CC(C)OC(=O)[C@@H]1OC(C)(C)O[C@H]1C(=O)OC(C)C`, the GI50 with NCI-H23, in the test with UACC-257, with SN12C, in the test with CCRF-CEM, in the test with OVCAR-5 and in the test with COLO 205 was > 100 µM (inactive) each time. The GI50 in the test on OVCAR-8, in the test on SK-MEL-5, in the test on DU-145, in the test with MOLT-4, in the test on SW-620 and in the test with SK-MEL-2 was > 100 µM (inactive) throughout. Further, the GI50 in the test on RPMI-8226, in the test on MDA-MB-435, in the test with SNB-19, in the test on SK-OV-3, with HCC 2998 and in the test on A498 was > 100 µM (inactive) in each case.

Source of the values: ChEMBL document CHEMBL1201862, “PubChem BioAssay data set” (2004).
